In the NIST ThermoML archive (doi:10.1021/je900570e):
Values joined by “and” are separate entries in the source; they are usually repeats but may differ in a detail not shown here. Identical values can stand only once. ± gives the expanded uncertainty stated by the source.

What was measured:
[1] = Liquid; for mass density: 101.33 kPa, Vibrating tube method; for viscosity / speed of sound: 101 kPa; for viscosity: Capillary tube (Ostwald / Ubbelohde) method; for speed of sound: Frequency=2 MHz, Pulse-echo method
[2] = xn = mol fraction of the nth substance listed; conditions: Liquid; for viscosity / speed of sound: 101 kPa; for viscosity: Capillary tube (Ostwald / Ubbelohde) method; for speed of sound: Frequency=2 MHz, Pulse-echo method; for mass density: 101.33 kPa, Vibrating tube method

| SMILES | mass density ([1]; 298.15 K) [kg/m3] | viscosity ([1]; 303.15 K) [mPa·s] | speed of sound ([1]; 303.15 K) [m/s] | mass density ([1]; 303.15 K) | viscosity ([1]; 308.15 K) [mPa·s] | speed of sound ([1]; 308.15 K) [m/s] | mass density ([1]; 308.15 K) [kg/m3] | viscosity ([1]; 313.15 K) [mPa·s] | speed of sound ([1]; 313.15 K) [m/s] | mass density ([1]; 313.15 K) [kg/m3] | viscosity ([2]; 303.15 K, x2 = 0) [mPa·s] | speed of sound ([2]; 303.15 K, x2 = 0) [m/s] | mass density ([2]; 303.15 K, x2 = 0) [kg/m3] | viscosity ([2]; 308.15 K, x2 = 0) [mPa·s] | speed of sound ([2]; 308.15 K, x2 = 0) [m/s] | mass density ([2]; 308.15 K, x2 = 0) [kg/m3] | viscosity ([2]; 313.15 K, x2 = 0) [mPa·s] | speed of sound ([2]; 313.15 K, x2 = 0) [m/s] | mass density ([2]; 313.15 K, x2 = 0) [kg/m3] | viscosity ([1]; 298.15 K) [mPa·s] | other results |
| --- | --- | --- | --- | --- | --- | --- | --- | --- | --- | --- | --- | --- | --- | --- | --- | --- | --- | --- | --- | --- | --- |
| ClC(Cl)C(Cl)Cl [1,1,2,2-tetrachloroethane] | 1586.8 ± 1.4 | 1.456 ± 0.017 | 1134.7 ± 7 | 1579.6 ± 1.4 kg/m3 | 1.354 ± 0.017 | 1115.5 ± 6.9 | 1570.6 ± 1.4 | 1.261 ± 0.016 | 1095.5 ± 6.8 | 1563.7 ± 1.4 |  |  |  |  |  |  |  |  |  |  |  |
| ClC(Cl)C(Cl)Cl [1,1,2,2-tetrachloroethane] + N#CCc1ccccc1 |  |  |  |  |  |  |  |  |  |  | 1.456 ± 0.017 | 1134.7 ± 7 | 1579.6 ± 1.4 | 1.354 ± 0.017 | 1115.5 ± 6.9 | 1570.6 ± 1.4 | 1.261 ± 0.016 | 1095.5 ± 6.8 | 1563.7 ± 1.4 |  |  |
| ClCC(Cl)Cl [1,1,2-trichloroethane] |  | 1.019 ± 0.016 | 1129.2 ± 7.1 | 1425 ± 1.8 kg/m3 | 0.9483 ± 0.015 | 1115.9 ± 7 | 1416.1 ± 1.8 | 0.8888 ± 0.015 | 1096.1 ± 6.9 | 1409.6 ± 1.8 |  |  |  |  |  |  |  |  |  | 1.105 ± 0.016 |  |
| ClCCCl [1,2-dichloroethane] | 1246.7 ± 0.4 | 0.7237 ± 0.012 | 1174 ± 7.2 | 1238.7 ± 0.4 kg/m3 | 0.6737 ± 0.011 | 1164.8 ± 7.1 | 1230.5 ± 0.4 | 0.6419 ± 0.011 | 1153.5 ± 7 | 1223.7 ± 0.4 |  |  |  |  |  |  |  |  |  | 0.776 ± 0.012 |  |
| ClCCCl [1,2-dichloroethane] + N#CCc1ccccc1 |  |  |  |  |  |  |  |  |  |  | 0.7237 ± 0.012 | 1174 ± 7.1 | 1238.7 ± 0.4 | 0.6737 ± 0.011 | 1164.8 ± 7.1 | 1230.5 ± 0.4 | 0.6419 ± 0.011 | 1153.5 ± 7 | 1223.7 ± 0.4 |  |  |
| N#CCc1ccccc1 [benzeneacetonitrile] |  | 1.761 ± 0.023 | 1519.2 ± 9.4 | 1008.83 ± 0.86 kg/m3 and 1008.8 ± 0.9 kg/m3 | 1.602 ± 0.021 | 1512.9 ± 9.3 | 1004.1 ± 0.8 | 1.489 ± 0.02 | 1503.4 ± 9.3 | 999.5 ± 0.8 |  |  |  |  |  |  |  |  |  |  |  |
| N#CCc1ccccc1 [benzeneacetonitrile] + ClCC(Cl)Cl |  |  |  |  |  |  |  |  |  |  |  |  |  |  |  |  |  |  |  |  | viscosity ([2]; 303.15 K, x1 = 1): 1.761 ± 0.023 mPa·s; speed of sound ([2]; 303.15 K, x1 = 1): 1519.2 ± 9.4 m/s; mass density ([2]; 303.15 K, x1 = 1): 1008.8 ± 0.9 kg/m3; viscosity ([2]; 308.15 K, x1 = 1): 1.602 ± 0.021 mPa·s; speed of sound ([2]; 308.15 K, x1 = 1): 1512.9 ± 9.3 m/s; mass density ([2]; 308.15 K, x1 = 1): 1004.1 ± 0.8 kg/m3; viscosity ([2]; 313.15 K, x1 = 1): 1.489 ± 0.02 mPa·s; speed of sound ([2]; 313.15 K, x1 = 1): 1503.4 ± 9.3 m/s; mass density ([2]; 313.15 K, x1 = 1): 999.5 ± 0.8 kg/m3 |
| ClC(Cl)=C(Cl)Cl [tetrachloroethene] | 1614.8 ± 0.8 | 0.7971 ± 0.012 | 1028 ± 6.3 | 1607.2 ± 0.8 kg/m3 | 0.7657 ± 0.012 | 1014 ± 6.2 | 1597.9 ± 0.8 | 0.7395 ± 0.012 | 996.6 ± 6.1 | 1590.6 ± 0.8 |  |  |  |  |  |  |  |  |  | 0.847 ± 0.012 |  |
| ClC(Cl)=C(Cl)Cl [tetrachloroethene] + N#CCc1ccccc1 |  |  |  |  |  |  |  |  |  |  | 0.7971 ± 0.012 | 1028 ± 6.3 | 1607.2 ± 0.8 | 0.7657 ± 0.012 | 1014 ± 6.2 | 1597.9 ± 0.8 | 0.7395 ± 0.012 | 996.6 ± 6.1 | 1590.6 ± 0.8 |  |  |
| ClC=C(Cl)Cl [trichloroethene] | 1455.9 ± 0.6 | 0.5172 ± 0.011 | 1014.7 ± 6.2 | 1447.5 ± 0.6 kg/m3 | 0.4992 ± 0.011 | 993.7 ± 6.1 | 1437.8 ± 0.6 | 0.4833 ± 0.011 | 982 ± 6 | 1430.4 ± 0.6 |  |  |  |  |  |  |  |  |  | 0.527 ± 0.011 |  |
| ClC=C(Cl)Cl [trichloroethene] + N#CCc1ccccc1 |  |  |  |  |  |  |  |  |  |  | 0.5172 ± 0.011 | 1014.7 ± 6.2 | 1447.5 ± 0.6 | 0.4992 ± 0.011 | 993.7 ± 6.1 | 1437.8 ± 0.6 | 0.4833 ± 0.011 | 982 ± 6 | 1430.4 ± 0.6 |  |  |
